Converted amounts (≈) assume the structure as drawn.
Key:
[1] = system: Mycobacterium tuberculosis H37Rv; experiment: Anti-tubercular activity, colorimetric Resazurin Microplate Assay (REMA), H37Rv; assay type: cell-based; details: 192 h, read-out: Anti-tubercular activity against Mycobacterium tuberculosis H37Rv (MIC)

SMILES | MIC [1] [µg/mL] | melting point [°C]
CC1=C(C(=O)N2CCCCC2)C(c2ccccc2)NC(=S)N1 (stereo not drawn) [DHPM-KN1, (6-Methyl-4-phenyl-2-thioxo-1,2,3,4-tetrahydropyrimidin-5-yl)(piperidin-1-yl)methanone] | 16 (≈ 50.7 µM) | 240
CC1=C(C(=O)N2CCCCC2)C(c2ccc(F)cc2)NC(=S)N1 (stereo not drawn) [DHPM-KN2, (4-(4-Fluorophenyl)-6-methyl-2-thioxo-1,2,3,4-tetrahydropyrimidin-5-yl)(piperidin-1-yl)methanone] | – | 234
COC(=O)C1=C(C)NC(=S)NC1c1ccc(C(F)(F)F)cc1 (stereo not drawn) [DHPM-KN3, Methyl 6-methyl-2-thioxo-4-(4-(trifluoromethyl)phenyl)-1,2,3,4-tetrahydropyrimidine-5-carboxylate] | – | 190
COC(=O)C1=C(C)NC(=O)NC1c1ccc([N+](=O)[O-])cc1[N+](=O)[O-] (stereo not drawn) [DHPM-KN4, Methyl 4-(2,4-dinitrophenyl)-6-methyl-2-oxo-1,2,3,4-tetrahydropyrimidine-5-carboxylate] | 16 (≈ 47.6 µM) | 210
CC1=C(C(=O)N2CCCCC2)C(c2ccc([N+](=O)[O-])cc2)NC(=S)N1 (stereo not drawn) [DHPM-KN5, (6-Methyl-4-(4-nitrophenyl)-2-thioxo-1,2,3,4-tetrahydropyrimidin-5-yl)(piperidin-1-yl)methanone] | 8 (≈ 22.2 µM) | 230
CC1=C(C(=O)N2CCCCC2)C(c2ccc(Br)cc2)NC(=S)N1 (stereo not drawn) [DHPM-KN6, (4-(4-Bromophenyl)-6-methyl-2-thioxo-1,2,3,4-tetrahydropyrimidin-5-yl)(piperidin-1-yl)methanone] | > 64 | 258
COc1ccc(C2NC(=S)NC(C)=C2C(=O)N2CCCCC2)cc1 (stereo not drawn) [DHPM-KN7, (4-(4-Methoxyphenyl)-6-methyl-2-thioxo-1,2,3,4-tetrahydropyrimidin-5-yl)(piperidin-1-yl)methanone] | > 64 | 124
CC1=C(C(=O)N2CCCCC2)C(c2ccccc2C)NC(=S)N1 (stereo not drawn) [DHPM-KN8, (6-Methyl-2-thioxo-4-(o-tolyl)-1,2,3,4-tetrahydropyrimidin-5-yl)(piperidin-1-yl)methanone] | 128 (≈ 389 µM) | 260
CC1=C(C(=O)N2CCCCC2)C(c2ccc(Cl)cc2)NC(=S)N1 (stereo not drawn) [DHPM-KN9, (4-(4-Chlorophenyl)-6-methyl-2-thioxo-1,2,3,4-tetrahydropyrimidin-5-yl)(piperidin-1-yl)methanone] | – | 218
CC1=C(C(=O)N2CCCCC2)C(c2ccc(C(F)(F)F)cc2)NC(=S)N1 (stereo not drawn) [DHPM-KN10, (6-Methyl-2-thioxo-4-(4-(trifluoromethyl)phenyl)-1,2,3,4-tetrahydropyrimidin-5-yl)(piperidin-1-yl)methanone] | 128 (≈ 334 µM) | 172
CC1=C(C(=O)N2CCCCC2)C(c2ccc(O)cc2)NC(=S)N1 (stereo not drawn) [DHPM-KN11, (4-(4-Hydroxyphenyl)-6-methyl-2-thioxo-1,2,3,4-tetrahydropyrimidin-5-yl)(piperidin-1-yl)methanone] | – | 274
CC1=C(C(=O)N2CCCCC2)C(c2ccccc2O)NC(=S)N1 (stereo not drawn) [DHPM-KN12, (4-(2-Hydroxyphenyl)-6-methyl-2-thioxo-1,2,3,4-tetrahydropyrimidin-5-yl)(piperidin-1-yl)methanone] | – | 223
CC1=C(C(=O)N2CCCCC2)C(c2ccc(O)c(O)c2)NC(=S)N1 (stereo not drawn) [DHPM-KN13, (4-(3,4-Dihydroxyphenyl)-6-methyl-2-thioxo-1,2,3,4-tetrahydropyrimidin-5-yl)(piperidin-1-yl)methanone] | – | 173
CC1=C(C(=O)N2CCCC2)C(c2ccccc2)NC(=S)N1 (stereo not drawn) [DHPM-KN14, (6-Methyl-4-phenyl-2-thioxo-1,2,3,4-tetrahydropyrimidin-5-yl)(pyrrolidin-1-yl)methanone] | – | 198
